In US20130039928A1, “COMPOSITIONS AND METHODS FOR REVERSING CORTICOSTEROID RESISTANCE OR TREATING RESPIRATORY INFECTIONS” (priority 2010, published 2013):
“Also recorded” adds a separate entry of the source.

How the values were obtained:
[1] = tested on: Nrf2; conditions: COPD alveolar macrophages, 5 μM for 16 h
Procedure: (§1) For inducing corticosteroid resistance, PMs were exposed to cigarette smoke condensate (CSC, 100 μg/ml; Murty Pharmaceuticals, Lexington, Ky.) for 16 h. Exposure to S-nitrosoglutathione (GSNO, 10 μM) was limited to 4 h. […] For assessing corticosteroid responsiveness, macrophages were incubated with dexamethasone (1 μM, Sigma) for 1 h followed by LPS (100 ng/ml, Sigma) for additional 4 h.
All immunoblots were performed by using protocols as described previously (Barnes, P. J., N Engl J Med 343, 269-280 (2000)). Rabbit anti-HDAC2 antibody from Santa Cruz Biotechnology (Santa Cruz, Calif.) was used at 1:500 dilutions. Rabbit anti-5-nitroso-cysteine antibody from Alpha diagnostics was used at 1:500 dilutions. Rabbit anti-nitro-tyrosine antibody from Cell Signaling Technology, was used at 1:250 dilution. Rabbit anti-ubiquitin antibody from Santa Cruz Biotechnology (Santa Cruz, Calif.) was used at 1:1000 dilutions. Rabbit anti-GR antibody from Santa Cruz Biotechnology (Santa Cruz, Calif.) was used at a dilution of 1:1000. Rabbit anti-MMP9 antibody from Sigma Aldrich was used at 1:500 dilutions. Rabbit anti-acetyl-lysine antibody from Abcam was used at 1:750 dilutions. Rabbit anti-lamin-B1 from Santa Cruz Biotechnology (Santa Cruz, Calif.) was used at 1:1000 dilutions as a loading control. The Image J program was used for densitometry analyses.
(§2) Total RNA was extracted from the cells by lysis and specific binding to a silica membrance (Qiagen RNeasy kit, Qiagen, Valencia, Calif.), and qRT-PCR was performed by using primers and probe sets for human IL-8, NQO1, GCLM, and iNOS (Assay-on-Demand, Applied Biosystems, Foster City, Calif.). A real-time fluorescent PCR system (ABI 7000 Taqman system, Applied Biosystems) was used to perform these assays. β-actin was used as the normalization control.

[2] = tested on: HDAC2; format: cell-based, human
Procedure: as §1
(§3) HDAC activity was measured using a fluorescent derivative of ε-acetyl-lysine from Enzo life sciences (Farmingdale, N.Y.) according to the manufacturer's recommendations. HDAC2 was immunoprecipitated for analysis of enzymatic activity.
Macrophage cell or lung tissue extracts were prepared by using 100 μL of immunoprecipitation buffer (50 mM Tris-HCl, pH 8.0, 150 mM NaCl, 1.0% Triton X-100, 0.5% NP-40, 0.1% SDS, 0.5% deoxycholate, and complete protease inhibitor cocktail) from Roche (Morristown, N.J.). The lysis mixture was incubated on ice for 15 minutes and microcentrifuged for 10 minutes at 4° C. Extracts were precleared with 20 μL protein A/G sepharose beads (a 50:50 mix) from Thermo scientific (Rockford, Ill.) and 2 μg of normal IgG. After microcentrifugation, 20 μL of protein A/G sepharose conjugated with 5 μg of antibody was used to precipitate HDAC2 (Santa Cruz Biotechnology, Santa Cruz, Calif.) overnight at 4° C. with rotation. The immune complexes were pelleted with gentle centrifugation, washed twice with 1 mL of immunoprecipitation buffer, and divided equally for the final wash for the activity assay and immunoblotting. For the HDAC assay, immunoprecipitates were resuspended in the activity assay buffer (50 mM TrisHCl, pH 8.0; 10% glycerol; 1 mM dithiothreitol; 0.1 mM EDTA, complete protease inhibitor cocktail). For HDAC2-specific western blotting, immune complexes were washed three times with the immunoprecipitation buffer and finally resuspended in Laemmli buffer for the SDS-PAGE.

[3] = tested on: SNO proteins; conditions: anti-SNO immunoblot, verified by DAN assay, vs vehicle
Procedure: S-nitrosylated proteins were detected by using the nitrate/nitrite fluorometric assay kit from Cayman chemicals (Ann Arbor, Mich.) according to the manufacturer's instructions. For HDAC2-specific nitrosylation detection, cells were lysed in buffer (50 mM Tris-HCl, pH 8.0, 150 mM NaCl, 1% Nonidet P-40, 0.5% deoxycholic acid, 0.1% SDS). These lysates were then subjected to immunoprecipitation by using an anti-HDAC2 antibody as described above. The immunoprecipitates were washed twice with lysis buffer and twice with PBS. The pellets were resuspended in 500 μL of PBS. After the addition of 100 μM HgCl2 and 100 μM DAN, the samples were incubated in the dark at 25° C. for 30 minutes, and 1 M NaOH was added. The generated fluorescent triazole from the reaction of the DAN with the NO released from the HDAC2 protein was measured by using an excitation wavelength of 375 nm and an emission wavelength of 450 nm. As a negative control, the antibody alone in lysis buffer was immunoprecipitated. The resulting background fluorescence intensity was subtracted for each experiment.

[4] = tested on: NO; assay: NO levels and iNOS expression in alveolar macrophages; format: cell-based, human; conditions: COPD alveolar macrophages, vs vehicle
Procedure: as §1, §3, §2

[5] = tested on: Pseudomonas aeruginosa; conditions: alveolar macrophages from mice exposed to CS, ex vivo
Procedure: After treatment, macrophages (10^5 cells) were incubated with bacteria (PA or NTHI) for 4 h. Subsequently, 100 μL of cell free culture medium was aseptically plated and cultured on tryptose blood and or chocolate agar plates at 37° C. The number of bacterial colonies was counted after 24 h.
Bacterial phagocytosis was quantified using a flow cytometry analysis.
(§4) C57BL/6J mice were housed under controlled conditions for temperature and humidity, using a 12-hour light/dark cycle. At 8 weeks of age, mice were exposed to CS for (2.5 h/day for 5 days/week) for 1 week or 6 months using a machine that produces cigarette smoke (TE-10, Teague Enterprises) and reference cigarettes (2R4F) with a total suspended particle concentration of 250 mg/m^3 as previously described (T. E. Sussan et al., Proc Natl Acad Sci USA, (Dec. 22, 2008)). Following exposure to CS, mice were inoculated with PA or NTHI at a dose of 10^3 CFU in 50 μl of PBS intranasally. For sulforaphane administration (0.5 mg/mouse of R, S-sulforaphane in PBS), a nebulizer (Aerogen, Inc., Galway, Ireland) designed specifically for small animals was used.

[6] = tested on: MARCO; conditions: alveolar macrophages from mice exposed to CS
Procedure: as §4

C[S+]([O-])CCCCN=C=S (centres unmarked) [sulforaphane]
GSH biosynthesizing enzymes (GCLC, GCLM) [1]: significantly elevated
Nrf2-regulated antioxidant genes (NQO1, HO-1) [1]: significantly elevated
Nrf2 nuclear protein levels [1]: significantly elevated
enzymatic activity of HDAC2 ([2]; COPD alveolar macrophages, P<0.01 versus vehicle): approximately 2 fold
HDAC2 activity ([2]; in the presence of BSO): failed to increase HDAC2 activity
HDAC2 enzymatic activity ([2]; treatment after GSNO exposure of alveolar macrophages): significantly increased HDAC2 activity
SNO proteins in lysates [3]: significant reduction in SNO proteins
NO levels [4]: significantly lower levels; also recorded: suppressed NO generation
iNOS expression [4]: significantly lower levels
bacterial phagocytic ability and clearance [5]: increased bacterial phagocytic ability and clearance
MARCO expression [6]: increased MARCO expression
